The numbers were not newly measured in US5801147A, “Polypeptides and use thereof” (Takeda Chemical Industries, Ltd., priority 1991, dated 1998), which cites them from elsewhere.

No end group written: not given here.

The subject of this series is hypophysis cells. The conditions noted are these: prior art.

Take “PACAP23: polypeptide consisting of 23 amino acid residues on the N-terminal side of PACAP38 (HSDGIFTDSYSRYRKQMAVKKYL; ends and bridges not checked; UniProt P18509 132-154, looked up, fragment)”: the “c-AMP-producing activity (background statement)” value (shortened to “c-AMP-producing activity”) is listed as “the same activity as that of PACAP27”.

For “PACAP24: polypeptide consisting of 24 amino acid residues on the N-terminal side of PACAP38 (HSDGIFTDSYSRYRKQMAVKKYLA; ends and bridges not checked; UniProt P18509 132-155, looked up, fragment)”, the “c-AMP-producing activity” value is listed as “the same activity as that of PACAP27”. “PACAP25: polypeptide consisting of 25 amino acid residues on the N-terminal side of PACAP38 (HSDGIFTDSYSRYRKQMAVKKYLAA; ends and bridges not checked; UniProt P18509 132-156, looked up, fragment)”: the “c-AMP-producing activity” value was “the same activity as that of PACAP27”.

Turning to “PACAP26: polypeptide consisting of 26 amino acid residues on the N-terminal side of PACAP38 (HSDGIFTDSYSRYRKQMAVKKYLAAV; ends and bridges not checked; UniProt P18509 132-157, looked up, fragment)”, the “c-AMP-producing activity” value is given as “the same activity as that of PACAP27”. For “PACAP27: a polypeptide consisting of 27 amino acid residues on the N-terminal side of PACAP38 (HSDGIFTDSYSRYRKQMAVKKYLAAVL; ends and bridges not checked; UniProt P18509 132-158, looked up)”, the “c-AMP-producing activity” value is on record as “The activity of PACAP38 has also been found”.

“PACAP38: polypeptide consisting of 38 amino acid residues, discovered in humans, sheep and rats (SEQ ID NO:1) (HSDGIFTDSYSRYRKQMAVKKYLAAVLGKRYKQRVKNK; ends and bridges not checked)”: the “c-AMP-producing activity” value is “enhances the production of intracellular c-AMP in hypophysis cells”.
